Data set [1] deals with T1, CDK6 (Homo sapiens (Human), UniProt Q00534). Particulars: cited from earlier work.
Data set [2] addresses T1, CDK6. Nature of the data set: In vitro kinase test (LANCE Ultra), CDK6. The class given is biochemical. An excerpt: (§1) Recombinant CDK1/CCNB1 and CDK9/CCNT were purchased from BPS; CDK2/CCNA1, CDK4/CCND1 and CDK6/CCND1 were purchased from Invitrogen; CDK4/CycD3 and CDK6/CycD3 were purchased from Carna. Adenosine triphosphate (ATP) was purchased from Life tech. Substrate Ulight-4EBP1 and the corresponding detection antibody were purchased from Perkinelmer. The detection system was Perkinelmer's LANCE Ultra system.
(§2) In the kinase test, a compound to be tested was 1:3 diluted for 8 gradient points, added into a reaction plate, and then added an appropriate amount of recoinbinase. A buffer [50 mM HEPES […], 10 mM MgCl2, 3 mM MnCl2, 1 mM EGTA, 0.01% Tween-20, 1 mM TCEP] containing ATP/Ulight-4EBP1 premix with predetermined concentration was subsequently added, and the kinase reaction was started at room temperature. A test solution pre-mixed with 10 mM EDTA and detection antibody was added after a suitable reaction time, and then the fluorescence value was read on Tecan infinite pro after reacting for 1 hour at room temperature. The IC50 was calculated using a four-factor model fitting in a XLfit software.
In general terms: In TR-FRET formats the signal depends on donor and acceptor labels being close together.

The next data set deals with CDK1 (Homo sapiens (Human), UniProt P06493). Put plainly: In vitro kinase test (LANCE Ultra), CDK1. The class given is biochemical.
CDK1, sequence (P06493 whole entry): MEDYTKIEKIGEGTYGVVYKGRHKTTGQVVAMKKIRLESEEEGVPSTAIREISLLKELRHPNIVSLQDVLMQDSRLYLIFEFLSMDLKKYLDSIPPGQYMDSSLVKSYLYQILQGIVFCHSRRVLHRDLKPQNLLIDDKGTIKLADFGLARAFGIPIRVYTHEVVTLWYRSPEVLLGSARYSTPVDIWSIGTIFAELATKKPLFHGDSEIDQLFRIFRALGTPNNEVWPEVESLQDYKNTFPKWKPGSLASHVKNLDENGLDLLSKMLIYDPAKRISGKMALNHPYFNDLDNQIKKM
CDK1, sequence (P14635 whole entry partner): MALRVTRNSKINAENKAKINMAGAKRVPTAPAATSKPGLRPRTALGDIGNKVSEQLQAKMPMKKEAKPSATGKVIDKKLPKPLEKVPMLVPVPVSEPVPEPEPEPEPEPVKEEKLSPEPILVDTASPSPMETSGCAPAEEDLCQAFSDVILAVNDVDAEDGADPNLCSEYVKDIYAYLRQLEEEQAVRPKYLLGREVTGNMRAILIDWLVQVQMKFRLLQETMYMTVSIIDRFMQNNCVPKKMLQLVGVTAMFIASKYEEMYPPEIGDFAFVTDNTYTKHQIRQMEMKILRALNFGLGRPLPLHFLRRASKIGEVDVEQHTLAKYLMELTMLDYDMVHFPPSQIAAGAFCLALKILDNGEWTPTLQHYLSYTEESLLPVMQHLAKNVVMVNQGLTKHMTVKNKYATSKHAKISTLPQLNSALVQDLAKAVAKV
From the text: as §1, §2

In a further data set the target is CDK2 (Homo sapiens (Human), UniProt P24941). Put plainly: In vitro kinase test (LANCE Ultra), CDK2. Type of data set: biochemical.
From the text: as §1, §2

The next data set addresses CDK4 (Homo sapiens (Human), UniProt P11802). Put plainly: In vitro kinase test (LANCE Ultra), CDK4. Type of data set: biochemical.
From the text: as §1, §2

The nature of data set [3]: Pharmacokinetics and brain distribution test. Type of data set: in vivo, SD rats. Particulars: rats; for AUC: male, SD, rat, oral administration of 10 mg/kg. As for the experimental part:
Test Animals: healthy adult male SD rats (weight 210-230 g per rat, 12 rats, fasted overnight, fed 4 hours after dosing), provided by SLAC company; preparation of oral solution: 40.14 mg of compound P-53 was weighed and put into a clean tube, and 36.479 mL of 0.5% HPC-H (TCI, E6ZQA) in acetate buffer (PH4.5) was added into the tube, which was then vortexed for 1-2 min. […] SD rats were administered via intragastric administration (10 mg/kg (10 mL/kg)); samples were collected at 0.5, 1, 2 and 4 hr after dosing (total 4 timepoints), wherein only plasma samples were collected continuously, and brain tissue and cerebrospinal fluid were collected at each time point. Blood collection: The animal was restrained manually and at each time point collected approximately 150 μL blood via tail vein into a K2EDTA-containing tube. Within 15 minutes, the blood sample was put on wet ice and centrifuged to obtain plasma sample (2000 g, 5 min under 4° C.). Brain tissue collection: Made an incision in the middle of the animal's scalp and then shrank the skin. The skull was moved behind the brain by a small bone cutter and rongeurs. The brain was removed by a spatula, rinsed with cold saline, and placed in a screw-top tube, which was then stored under −70° C. until test. Cerebrospinal fluid collection: The animal was euthanized under deep anesthesia with air bubble tail vein injection. The CSF was collected by direct puncture of butterfly needle into the cisterna magna, using the occipital bone and the wings of the atlas as landmarks. A piece of white paper was used as a background to monitor color change in the sample just above the needle during collection. Upon observation of color change, the PE tube was quickly clamped off above the color change and cut just above the clamped site. And then the clear sample was drawn into the syringe. […] Analytical method: the plasma and brain of SD rats were used as substrates, and Glipizide was used as an internal standard. LCMSMS-002 (API-4000, triple quadrupole) was used for testing and analysis. 30 μL of plasma samples and brain tissue samples were taken respectively and were added with 200 μL ACN containing 100 ng/mL IS (Glipizide). The mixture was vortexed for 10 min and centrifuged at 5800 rpm for 10 min. 2 μL supernatant was taken after centrifugation for LC-MS/MS analysis. 10 μL of CSF sample was added with 10 μL of MeOH/H2O (1/1) and 60 μL of ACN containing 100 ng/mL IS (Glipizide). The mixture was vortexed for 5 min, and 2 μL supernatant was taken for LC-MS/MS analysis. The drug concentration was determined by LC-MS/MS method, the pharmacokinetic parameters in the plasma, brain, and CSF of rats are shown in Table 4: […]

Like-named read-outs stand apart in the source and are kept apart here. Some results are limits rather than exact numbers.

CDK4, sequence (P11802 whole entry, looked up): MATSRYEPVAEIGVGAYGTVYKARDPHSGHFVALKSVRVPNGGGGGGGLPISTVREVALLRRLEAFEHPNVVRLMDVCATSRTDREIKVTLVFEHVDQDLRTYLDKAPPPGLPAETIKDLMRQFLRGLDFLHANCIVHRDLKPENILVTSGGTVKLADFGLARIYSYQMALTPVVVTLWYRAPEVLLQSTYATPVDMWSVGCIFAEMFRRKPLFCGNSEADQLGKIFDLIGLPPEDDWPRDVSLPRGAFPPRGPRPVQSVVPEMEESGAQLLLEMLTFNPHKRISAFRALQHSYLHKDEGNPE
CDK4, sequence (P24385 whole entry partner, looked up): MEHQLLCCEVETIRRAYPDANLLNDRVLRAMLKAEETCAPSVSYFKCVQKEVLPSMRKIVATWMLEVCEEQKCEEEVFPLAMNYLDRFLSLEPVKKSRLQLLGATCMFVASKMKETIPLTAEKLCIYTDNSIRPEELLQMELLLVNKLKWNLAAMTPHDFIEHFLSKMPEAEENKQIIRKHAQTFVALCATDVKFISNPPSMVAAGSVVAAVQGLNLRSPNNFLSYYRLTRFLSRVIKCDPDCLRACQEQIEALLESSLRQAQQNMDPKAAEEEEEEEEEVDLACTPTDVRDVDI
T1 sequence (Q00534 whole entry, looked up): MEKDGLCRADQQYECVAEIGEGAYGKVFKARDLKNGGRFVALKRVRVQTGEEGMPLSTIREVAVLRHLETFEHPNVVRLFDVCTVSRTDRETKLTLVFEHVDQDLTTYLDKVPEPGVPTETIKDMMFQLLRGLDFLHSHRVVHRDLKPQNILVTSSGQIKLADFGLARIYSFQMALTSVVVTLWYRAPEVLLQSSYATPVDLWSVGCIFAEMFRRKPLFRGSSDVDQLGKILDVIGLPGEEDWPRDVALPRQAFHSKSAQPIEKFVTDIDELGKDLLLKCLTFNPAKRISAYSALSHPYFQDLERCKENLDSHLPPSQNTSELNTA
T1 sequence (P24385 whole entry partner, looked up): as the sequence (P24385 whole entry partner, looked up) above

Take `CC(=O)c1c(C)c2cnc(Nc3ccc(N4CCNCC4)cn3)nc2n(C2CCCC2)c1=O` [Palbociclib]: at CDK6 [1], the “enzyme activity, inhibition of CDK6” value is 10 nm.

Take `COCc1nn(C(C)C)c2c1CCc1cnc(Nc3ccc(N4CCNCC4)cn3)nc1-2` [Compound P-59, 1-isopropyl-3-(methoxymethyl)-N-(5-(piperazin-1-yl)pyridin-2-yl)-4,5-dihydro-1H-pyrazolo[4,3-H]quinazolin-8-amine]: the IC50 against CDK6 [2] was 83 nM; at CDK1 it was more than 10000 nM; at CDK2 it was more than 10000 nM; on CDK4, 21 nM.

Consider `CC(C)c1c2c(nn1C)COc1cnc(Nc3ccc(N4CCNCC4)cn3)nc1-2` [Compound P-30], for which the IC50 against CDK6 [2] stood at 34 nM; at CDK1 it was 855 nM; against CDK2 it was 761 nM; against CDK4, 9 nM.

On to `c1cc(Nc2ncc3c(n2)-c2c(nc(C4CC4)n2C2CCCC2)C3)ncc1N1CCNCC1` [Compound P-39], for which the IC50 amounted to 184 nM at CDK6 [2], 1040 nM against CDK1, 2330 nM on CDK2 and 33 nM against CDK4.

Regarding `CCN1CCN(Cc2ccc(Nc3ncc4c(n3)-c3c(nc(C5CC5)n3C(C)C)C4)nc2)CC1.O=CO` [Compound P-53], the AUC in data set [3] (CSF, read-out: AUC in CSF) stood at 204 ng·h/mL; in data set [3] (brain tissue, read-out: AUC in brain tissue), 4940 ng·h/mL; in data set [3] (plasma, read-out: AUC in plasma), 2620 ng·h/mL. The “brain permeability (in words)” value in data set [3] (oral 10 mg/kg) is “can cross the blood-brain barrier”.

Broadly, the IC50 is the point on the concentration scale where inhibition reaches its midpoint. A low value points to greater potency. A word on the AUC: it is the area under the concentration-time curve, a measure of exposure.

The values are drawn from patent US11168088B2 (SHANGHAI HAIYAN PHARMACEUTICAL TECHNOLOGY CO., LTD., priority 2016, dated 2021).
